Laboratory results: patent publication US12564622B2, “Preventing cytokine release syndrome” (priority 2017, dated 2026)
Where “and” joins values, the source holds several entries; their conditions need not be identical. Identical values can stand only once. Entries after “also recorded” stand apart in the source; their conditions may differ.

Legend:
[1] = test system: polymicrobial peritoneal sepsis induced by CLP; assay: Cecal ligation and puncture (CLP) sepsis; assay type: in vivo, mouse (C57BL/6); details: ANP given after CLP
[2] = test system: human U937-derived macrophage cells; assay: U937 macrophage catecholamine and cytokine production; assay type: cell-based; details: LPS 1 μg/ml and/or epinephrine 15 ng/ml, metyrosine 2 mM
Method: Human U937 cells were cultured in RPMI 1640 media with 5% FBS and antibiotics, and were differentiated to M1 macrophage-like cells by incubating with 20 nM phorbol 12-myristate 13-acetate (PMA, Sigma) for 24 hours and further culturing in RPMI 1640 media with 5% FBS and antibiotics for another 72 hours. The experiments with U937 were set up in the same way as described above with peritoneal macrophages. […] Cells were incubated for 24 hours with LPS at 1 μg/ml.

LPS-injected BALB/c mice = assay type: in vivo, mouse (BALB/c)
Method: LPS from Escherichia coli 0111:B4 was formulated as a 10 mg/ml solution in water and stored in −80° C. LPS was injected intraperitoneally at a dose of 3.5 mg/kg. […] Human ANP (Sigma) was dissolved in saline, loaded in mini-osmotic pumps (ALZET) with a release rate of 12 μg/day and implanted subcutaneously in the back of mice 12 hours before the LPS injection. Mice implanted with pumps loaded with saline served as controls. […] […] The control groups were injected with PBS. […] Hydration of mice was supported by daily subcutaneous injection of 0.5 ml saline.
LPS from Escherichia coli 0111:B4 was formulated as a 10 mg/ml solution in water and stored in −80° C. In Balb/C mice, LPS was injected intraperitoneally at a lethal dose of 3.5 mg/kg. […] In experiments with catecholamine pumps, a sublethal dose with 15-35% death rate was optimized in Balb/C mice. In TH+/+ and TH^ΔLysM mice with C57BL/6 background, a lethal dose was optimized at 5 mg/kg. Human ANP (Sigma) was dissolved in saline, loaded in mini-osmotic pumps (ALZET) with a release rate of 12 μg/day and implanted subcutaneously in the back of mice 12 hours before the LPS injection. Mice implanted with pumps loaded with saline served as controls. Metyrosine was freshly dissolved in PBS and injected IP at the indicated doses for three days prior to the LPS treatment. One hour before the LPS injection, metyrosine was injected into the lower abdomen contralateral to the side of LPS injection. The control groups were injected with PBS. For the following 3 days, metyrosine was injected IP at reduced indicated doses. Hydration of mice was supported by daily subcutaneous injection of 0.5 ml saline.

[3] = test system: co-culture of hCART19 and Raji cells; assay: In vitro co-culture of Raji and hCART19 cells; assay type: cell-based, human; details: Raji with hCART19 (1:5), 24 hours; metyrosine 2 mM or ANP 5 μg/ml
From the text: Human CD19scFv-CD28-4-1BB-CD3ζ CAR-T cells (PM-CAR1003) were purchased from Promab Biotechnologies and maintained less than 7 days in AIM-V medium (GIBCO) supplemented with 300 IU/ml of hIL2 (Peprotech), 5% FBS and antibiotics (Car-T medium).

[4] = test system: Raji-bearing NSGS mice with high tumour burden treated with hCART19; assay: hCART19 treatment of Raji-bearing NSGS mice, high tumour burden; assay type: in vivo, mouse (NSGS)
From the text: Six to eight-week old female NSG-SGM3 mice (NOD.Cg-Prkdcscid Il2rgtm1Wjl Tg(CMVIL3,CSF2,KITLG)1Eav/MloySzJ, Stock #013062) were purchased from the Jackson Laboratory. Raji cells were transfected with a luciferase construct via lentivirus to create Raji-luc cells as described elsewhere (Bai et al., 2015 Neuro Oncol., 17:545). Human CD19scFv-CD28-4-1BB-CD3ζ CART cells (PM-CAR1003, CART19) from Promab Biotechnologies were maintained for less than 7 days in AIM-V medium (GIBCO) supplemented with 300 IU/ml of hIL2 (Peprotech), 5% FBS and antibiotics. One day before the injection of Raji cells, mice were irradiated at a dose of 2 Gy in a CIXD Xstahl device. One million Raji-luc cells were injected IV via tail vein on day zero. Six days later, tumor loads were assessed using a Xenogen instrument and 15×10^6 CART19 cells were injected IV. Metyrosine was injected IP at 60 mg/kg/day for three days before the CART19 injection. On the day of CART19 injection, a fourth dose of 60 mg/kg was given IP and the mice were subsequently injected four more times at daily intervals at 30 mg/kg.
Six to eight weeks old female NSG-SGM3 (NSGS) mice (NOD.Cg-Prkdcscid Il2rgtm1WjlTg (CMV-IL3, CSF2, KITLG) 1Eav/MloySzJ, Stock #013062) were purchased from the Jackson Laboratory. Raji cells were transfected with a luciferase construct via lentivirus to create Raji-luc cells. NSGS is a triple transgenic strain expressing human IL3, GM-CSF and SCF combine the features of the highly immunodeficient NOD scid gamma (NSG) mouse. One day before the injection of Raji cells, mice were irradiated at a dose of 2 Gy in a CIXD Xstahl device. In high tumor burden experiments in FIG. 5, 10^6 Raji-luc cells were injected IV via tail vein. Six days later, tumor loads were assessed using a Xenogen instrument and 15×10^6 hCART19 cells or untransduced T-cells were injected IV. In low tumor burden experiments in FIG. 6, 2×10^5 Raji-luc cells were injected IV via tail vein. Four days later, tumor loads were assessed using a Xenogen instrument and 15×10^6 hCART19 cells were injected IV. Metyrosine was injected IP at 60 mg/kg/day for three days before the hCART19 injection. On the day of CART19 injection, a fourth dose of 60 mg/kg was given IP and the mice were subsequently injected four more times at daily intervals at 30 mg/kg.

[5] = 24 and 72 hours after hCART19, metyrosine pre-treatment

| Structure (SMILES) | survival after CLP, treatment after rather than before CLP [1] | catecholamines and cytokines [2] | levels of catecholamines (LPS-injected BALB/c mice; LPS, metyrosine pre-treatment) | levels of inflammatory cytokines (LPS-injected BALB/c mice; LPS, metyrosine pre-treatment) | mice surviving (LPS-injected BALB/c mice; lethal dose LPS IP, metyrosine pre-treatment) | efficacy at 20 mg/kg (LPS-injected BALB/c mice; lethal dose LPS, metyrosine 20 mg/kg) | dependence of efficacy on dose (LPS-injected BALB/c mice; lethal dose LPS, metyrosine 20, 30, 40 mg/kg) | catecholamine production [3] | cytokine production [3] | circulating catecholamines [4, 5] | circulating human and mouse cytokines [4, 5] | circulating catecholamines ([4]; 24 and 72 hours after hCART19, metyrosine pre-treatment, listed as Metyrosine) | final outcome ([4]; high tumour burden, hCART19 plus metyrosine) | plasma dopamine ([4]; two time points after CART19 treatment) |
| --- | --- | --- | --- | --- | --- | --- | --- | --- | --- | --- | --- | --- | --- | --- |
| CC[C@H](C)[C@@H]1NC(=O)[C@H](CCCNC(=N)N)NC(=O)[C@H](CC(=O)O)NC(=O)[C@H](CCSC)NC(=O)[C@H](CCCNC(=N)N)NC(=O)CNC(=O)CNC(=O)[C@H](Cc2ccccc2)NC(=O)[C@@H](NC(=O)[C@H](CO)NC(=O)[C@H](CO)NC(=O)[C@H](CCCNC(=N)N)NC(=O)[C@H](CCCNC(=N)N)NC(=O)[C@H](CC(C)C)NC(=O)[C@@H](N)CO)CSSC[C@@H](C(=O)N[C@@H](CC(N)=O)C(=O)N[C@@H](CO)C(=O)N[C@@H](Cc2ccccc2)C(=O)N[C@@H](CCCNC(=N)N)C(=O)N[C@@H](Cc2ccc(O)cc2)C(=O)O)NC(=O)CNC(=O)[C@H](CC(C)C)NC(=O)CNC(=O)[C@H](CO)NC(=O)[C@H](CCC(N)=O)NC(=O)[C@H](C)NC(=O)CNC1=O [ANP, atrial natriuretic peptide] | did not rescue the mice |  |  |  |  |  |  |  |  |  |  |  |  |  |
| C[C@](N)(Cc1ccc(O)cc1)C(=O)O [metyrosine, α-methyl-tyrosine] |  | Comparable results were obtained | substantially reduced | substantially reduced | ~70% and ~75% | ineffective | dose-dependent | significantly decreased; also recorded: suppressed the catecholamine surge | significantly decreased; also recorded: blocked | significantly reduced; also recorded: significantly lower | significantly reduced; also recorded: significantly lowered | able to block that effect | eventually died with progressive lymphoma | able to reduce dopamine production |
